Data reported in ChEMBL document CHEMBL2396570, “Structural basis for the design and synthesis of selective HDAC inhibitors” (Bioorg Med Chem, 2013).

How the values were obtained:
Homo sapiens [1] = species on record: Homo sapiens; assay: Selectivity ratio for human HDAC4 over human HDAC2
Homo sapiens [2] = species on record: Homo sapiens; assay: Selectivity ratio for human HDAC4 over human HDAC3
Homo sapiens [3] = species on record: Homo sapiens; assay: Selectivity ratio for human HDAC4 over human HDAC1
Homo sapiens [4] = species on record: Homo sapiens; assay: Selectivity ratio for human HDAC4 over human HDAC8

Measured: Selectivity ratio

Cn1cc(/C=C/C(=O)c2cccc(F)c2)cc1/C=C/C(=O)NO
176: Homo sapiens [1] | Homo sapiens [2] | Homo sapiens [3] | Homo sapiens [4]
